Measured values reported in the supplement of paper PMC10307832.

How the values were obtained:
Assay in all cases: relative viability (nuclei count vs DMSO), 5 days (fraction); higher = more cells survive
[1] = compound: CCOc1cc2ncc(C#N)c(Nc3ccc(OCc4ccccn4)c(Cl)c3)c2cc1NC(=O)/C=C/CN(C)C [Neratinib] + CCNC(=O)c1noc(-c2cc(C(C)C)c(O)cc2O)c1-c1ccc(CN2CCOCC2)cc1 [Luminespib] (partner 0.01 µM)
Method in brief: (§1)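 Lung cancer cell lines were pin-tool dosed in 1536-well plates on the day after seeding, with either a lone drug or a fixed anchor-drug dose plus five library-drug doses (not always all listed) in √10 steps. Nuclei were counted on 4× images after 5 days. Relative viability is the ratio of treated-well to vehicle-well nuclei counts, with each value a median of duplicate plates.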

[2] = compound: CCOc1cc2ncc(C#N)c(Nc3ccc(OCc4ccccn4)c(Cl)c3)c2cc1NC(=O)/C=C/CN(C)C [Neratinib] + CS(=O)(=O)CCNCc1ccc(-c2ccc3ncnc(Nc4ccc(OCc5cccc(F)c5)c(Cl)c4)c3c2)o1 [Lapatinib] (partner 2 µM)
Method in brief: as §1

[3] = compound: CCOc1cc2ncc(C#N)c(Nc3ccc(OCc4ccccn4)c(Cl)c3)c2cc1NC(=O)/C=C/CN(C)C [Neratinib] + Nc1ncn([C@H]2C[C@H](O)[C@@H](CO)O2)c(=O)n1 [Decitabine] (partner 2 µM)
Method in brief: as §1

[4] = compound: CCOc1cc2ncc(C#N)c(Nc3ccc(OCc4ccccn4)c(Cl)c3)c2cc1NC(=O)/C=C/CN(C)C [Neratinib] + O=C(c1cc(Cc2n[nH]c(=O)c3ccccc23)ccc1F)N1CCN(C(=O)C2CC2)CC1 [Olaparib] (partner 8 µM)
Method in brief: as §1

| Cell Line | relative viability ([1]; first compound 0.01 µM) | relative viability ([1]; first compound 0.03162 µM) | relative viability ([1]; first compound 0.1 µM) | relative viability ([1]; first compound 0.3162 µM) | relative viability ([1]; first compound 1 µM) | relative viability ([2]; first compound 0.01 µM) | relative viability ([2]; first compound 0.03162 µM) | relative viability ([2]; first compound 0.1 µM) | relative viability ([2]; first compound 0.3162 µM) | relative viability ([2]; first compound 1 µM) | relative viability ([3]; first compound 0.01 µM) | relative viability ([3]; first compound 0.03162 µM) | relative viability ([3]; first compound 0.1 µM) | relative viability ([3]; first compound 0.3162 µM) | relative viability ([3]; first compound 1 µM) | relative viability ([4]; first compound 0.01 µM) | relative viability ([4]; first compound 0.03162 µM) | relative viability ([4]; first compound 0.1 µM) | relative viability ([4]; first compound 0.3162 µM) | relative viability ([4]; first compound 1 µM) |
| --- | --- | --- | --- | --- | --- | --- | --- | --- | --- | --- | --- | --- | --- | --- | --- | --- | --- | --- | --- | --- |
| NCI-H2023 | 0.999 | 0.871 | 0.579 | 0.709 | 0.579 | 0.888 | 0.804 | 0.758 | 0.878 | 0.723 | 0.245 | 0.232 | 0.206 | 0.217 | 0.376 | 0.448 | 0.415 | 0.365 | 0.42 | 0.386 |
| NCI-H1651 | 0.723 | 1.32 | 0.654 | 0.896 | 0.546 | 0.881 | 1.01 | 0.77 |  | 0.68 | 0.63 | 0.663 | 0.391 | 0.585 | 0.543 | 0.183 | 0.191 | 0.185 | 0.19 | 0.193 |
| NCI-H1666 |  | 0.951 |  | 0.752 | 0.846 | 1.02 | 0.769 | 0.546 | 0.673 | 0.596 |  |  | 0.747 | 0.612 | 0.604 | 0.751 | 0.806 | 0.675 | 0.666 | 0.806 |
| NCI-H1734 | 0.202 | 0.206 | 0.169 | 0.204 | 0.153 | 1.28 | 1.1 | 0.909 | 1.06 | 0.829 | 0.539 | 0.579 |  | 0.54 | 0.481 | 0.76 | 0.694 | 0.545 | 0.525 | 0.457 |
| EPLC-272H |  | 0.616 | 0.464 | 0.315 | 0.135 | 0.889 | 0.849 | 0.829 | 0.899 | 0.536 | 0.407 | 0.444 | 0.332 | 0.331 | 0.344 | 0.645 | 0.643 | 0.558 | 0.512 | 0.253 |
| NCI-H2085 | 0.4 | 0.455 | 0.353 | 0.3 | 0.294 | 0.76 | 0.887 | 0.767 | 0.71 | 0.699 | 0.595 | 0.547 | 0.542 | 0.485 | 0.516 | 0.755 | 0.8 | 0.729 | 0.644 | 0.639 |
| BEN | 0.605 | 0.367 | 0.378 | 0.307 | 0.243 | 0.739 | 1.12 | 0.464 | 0.59 | 0.565 | 0.76 | 0.77 | 0.809 | 0.636 | 0.702 | 1.15 | 1.21 | 0.863 | 0.932 | 0.816 |
| COR-L 105 | 0.862 | 0.669 | 0.53 | 0.35 | 0.203 | 0.36 | 0.37 | 0.331 | 0.377 | 0.32 | 0.674 | 0.618 | 0.402 |  | 0.349 | 0.641 |  | 0.506 | 0.414 | 0.419 |
| ABC-1 | 0.337 | 0.659 | 0.405 | 0.315 | 0.278 | 1.44 | 1.15 | 1.21 | 1.05 | 0.629 | 1.21 | 1.31 | 1.23 | 1.07 | 0.746 | 0.835 | 0.979 | 0.946 | 0.631 | 0.489 |
